Legend:
HDAC = HDAC expression (RTqPCR) and histone acetylation (Western blot) in cTreg; format: cell-based, mice; settings: 0.1 mM, 24 hours
Description: (§1) Treg were isolated from the colon, small intestine, mesenteric lymph node or spleen of C57BL/6 Foxp3^YFP-Cre mice and FACS-sorted based on expression of YFP. RNA samples were prepared using the RNeasy Mini Kit (Qiagen) and cDNA was synthesized using the Bio-Rad iScript cDNA Synthesis Kit. Real-time (RT)-qPCR was performed using the KAPA SYBR FAST Universal qPCR Kit (KAPA Biosystems) and a Stratagene MX3005P (Agilent Technologies). The following primer sequences were used:
Colonic lamina propria Treg were isolated and whole cell lysates generated using RIPA buffer in the presence of protease inhibitors. Protein lysates were resolved using SDS-PAGE and transferred to PVDF membrane using a Bio-Rad wet transfer apparatus. Blots were probed with antibodies directed against acetyl-histone H3 (K9) and histone H3 (All from Cell Signaling Technologies). After incubation with the appropriate HRP-conjugated antibody, ECL was used for developing. Densitometry analysis of Western blots was performed using Image-J software available on the world wide web at rsbweb.nih.gov/ij/.

colonic Treg (cTreg) [1] = assay: Ex vivo RTqPCR of cTreg from in vivo treated mice
Description: Science 341: 1645 (2013). […] Treg were isolated from the colon, small intestine, mesenteric lymph node or spleen of C57BL/6 Foxp3^YFP-Cre mice and FACS-sorted based on expression of YFP. […] Real-time (RT)-qPCR was performed using the KAPA SYBR FAST Universal qPCR Kit (KAPA Biosystems) and a Stratagene MX3005P (Agilent Technologies).

[2] = Stability of SCFA mix in mouse water bottle over time; format: physicochemical
Description: Mice were treated for 21 days with either sodium acetate (150 mM), sodium propionate (150 mM), sodium butyrate (100 mM) or a SCFA mix (67.5 mM acetate, 40 mM Butyrate, 25.9 mM Propionate) in the drinking water. In in vivo drinking water treatment experiments, control mice received pH and sodium-matched water. At the conclusion of the experiment mice were removed from isolators and processed immediately.

[3] = test system: colonic lamina propria Treg; assay: In vitro T cell stimulation of colonic Treg (RTqPCR, ELISA, proliferation); format: cell-based, mice
Description: as §1
Colonic lamina propria Treg were isolated from C57BL/6 Foxp3^YFP-Cre mice as described above and FACS-sorted based on expression of YFP. Isolated Treg were cultured in RPMI 1640 medium supplemented with 10% FBS (Gibco), 4 mM L-glutamine, 80 U/ml penicillin, 80 μg/ml streptomycin, 1 mM sodium pyruvate, 10 mM HEPES and 1× nonessential amino acids (all obtained from Cellgro). Treg were stimulated with 1 μg/ml anti-CD3 antibody and with or without 0.1 mM sodium propionate for 24 h at 37° C. The division index is calculated by dividing the total number of cell divisions by the number of cells added at the start of the culture and represents the average number of divisions a cell from the original population has undergone and includes the undivided fraction in the calculation.
Cytokines were measured in culture supernatants using standard cytokines, antibodies and protocols. IL-10 was measured using the BD OptEIA ELISA Kit (BD Biosciences) and TGFβ1 levels were measured using the mouse TGF-beta 1 DuoSet (R&D Systems).

[4] = mouse, in vivo
Description: At the conclusion of the experiment mice were removed from isolators and processed immediately.
Cecal or small intestinal contents were collected immediately after animals were sacrificed and flash frozen in N2(1). Samples were mashed in 500 μl HPLC grade water and centrifuged at >14,000 x g, the resulting supernatant was then passed through a 0.22 μm syringe filter to remove bacterial cells and debris. Samples we then acidified with 1/10 volume of 0.01M H2SO4, heated and passed through a condenser to isolate volatile compounds within a sample. SCFA analyses were performed using an Agilent 1200 series HPLC and a Poroshell 120 SB C18 column (2.7 μm, 3.0×100mm) with guard column (Agilent Technologies). Sulfuric acid (0.01M) was used as the mobile phase. SCFA concentrations were weight corrected.

colonic Treg (cTreg) [5] = assay: Antibiotic (vancomycin) treatment of SPF mice with or without SCFA; format: in vivo; settings: Ffar2-/- vs Ffar2+/+ mice
Description: Science 341: 1645 (2013). […] The crude cell suspension was loaded onto a 40%/90% Percoll (GE Healthcare) gradient and centrifuged at 720 x g for 25 min at room temperature with acceleration and brake turned off. LP lymphocytes were collected from the 40%/90% interface. Intracellular staining of the transcription factors Foxp3, Helios and T-bet was performed using the Foxp3 Fix/Perm Buffer Set (Biolegend). For detection of intracellular cytokines, cells were first stimulated for 4 h with 50 ng/ml PMA and 1 μg/ml ionomycin in the presence of Brefeldin A (All obtained from Sigma), followed by staining for surface markers. Cells were then fixed and permeabilized using the Foxp3 Fix/Perm Buffer Set (Biolegend) and stained for intracellular cytokines. The following antibodies were used: […] All antibodies were obtained from Biolegend unless otherwise noted. Flow cytometry was performed using LSRII and data were analyzed with FlowJo software (TreeStar, Inc.). Cell sorting was performed using a […] at the Dana-Farber Cancer Institute Flow Cytometry Core.

[6] = in vivo treated GF and SPF mice

## CCC(=O)O [Propionate, propionic acid]
HDAC; Ffar2+/+
  cTreg expression of HDAC6 and HDAC9: reduced
  cTreg expression of class I HDAC1 and HDAC2 or class IIa HDAC7: did not reduce
HDAC; cTreg, required Ffar2
  histone acetylation (H3K9): enhanced
Colonic Treg (cTreg) [1]; cTreg from GF mice treated in vivo for three weeks
  Foxp3 and IL-10 expression in cTreg: significant increase
Colonic Treg (cTreg) [1]; [6]
  levels of chemokine receptor CCR9 or α4β7 integrin in cTreg: not altered
  levels of the cTreg homing receptor GPR15: increase
[2]; Day 0
  SCFA mix in mouse water bottle over time, Input (Day 0): 200 mM
[2]; Day 1, input 200 mM
  SCFA mix in mouse water bottle over time, Day 1: 200 mM
[2]; Day 4, input 200 mM
  SCFA mix in mouse water bottle over time, Day 4: 199.6 mM
[2]; Day 7, input 200 mM
  SCFA mix in mouse water bottle over time, Day 7: 201.24 mM
[2]; Day 10, input 200 mM
  SCFA mix in mouse water bottle over time, Day 10: 202.9 mM
[2]; Day 14, input 200 mM
  SCFA mix in mouse water bottle over time, Day 14: 203.2 mM
[2]; Day 90, input 200 mM
  SCFA mix in mouse water bottle over time, Day 90: 41.9 mM
[3]; Ffar2+/+ cTreg, 0.1 mM, 24 hours
  Foxp3 and IL-10 expression and IL-10 protein levels: enhanced
[3]; anti-CD3 and IL-2, 0.1 mM propionate
  cTreg proliferation: enhanced proliferation
[3]; cTreg from GF mice stimulated 24 hours in vitro, 0.1 mM
  Foxp3 and IL-10 expression in cTreg: significant increase
[3]; cTreg from GF mice, in vitro 24 hours, 0.1 mM, ELISA
  IL-10 production: increased
[3]; cTreg from SPF mice, 24 hours in vitro, 0.1 mM
  Foxp3 expression, IL-10 expression and IL-10 protein production: increases
[4]
  SCFA levels, SPF SI: 2.69 ± 0.24 µmol/g
  SCFA levels, SPF SI + P: 12.08 ± 3.69 µmol/g
  SCFA levels, cecal contents, ASF: 18.83 ± 2.72 µmol/g
  SCFA levels, cecal contents, GF: 1.46 ± 0.162 µmol/g
  SCFA levels, cecal contents, GF + Mic: 11.78 ± 6.38 µmol/g
  SCFA levels, cecal contents, GF + P: 14.93 ± 4.50 µmol/g
  SCFA levels, cecal contents, SPF: 21.90 ± 0.122 µmol/g
  SCFA levels, cecal contents, SPF + P: 43.33 ± 12.17 µmol/g
  SCFA levels, cecal contents, SPF + Vanco: 1.851 ± 1.41 µmol/g
Colonic Treg (cTreg) [5]
  restoration of cTreg populations and numbers in the setting of vancomycin treatment: Ffar2 was necessary

Reference: patent publication US20170340588A1, “MODULATION OF REGULATORY T CELLS VIA G-COUPLED PROTEIN RECEPTOR 43” (President and Fellows of Harvard College, priority 2013, published 2017)
